Test results published in patent US7001921B1, “Cell adhesion inhibitors” (Biogen Idec MA Inc., priority 1995, dated 2006).

These compounds were tested against T1, VLA4 (Homo sapiens, UniProt P05556+P13612) (assay: Inhibition of VLA4-dependent adhesion to BSA-CS1 (labelled Ramos cells)). Settings: binding of BCECF-AM labelled Ramos cells to CS1 peptide-coated wells, 2 mM MnCl2, 30 minutes at room temperature; IC50 range.
T1 construct: endogenous in cells; host or cells: Ramos cells
Type: cell-based
Outline: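 Ramos cells labelled with 2 μM BCECF-AM, with 2 mM MnCl2 added to upregulate VLA4, were incubated with test compound (final 0.01 nM–10 μM, triplicate) on BSA-CS1-coated wells for 30 min at room temperature in TRIS buffer pH 7.4. After washing, bound fluorescence was read, with uncoated wells giving non-specific binding.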

T1 sequence (P13612 34-1032): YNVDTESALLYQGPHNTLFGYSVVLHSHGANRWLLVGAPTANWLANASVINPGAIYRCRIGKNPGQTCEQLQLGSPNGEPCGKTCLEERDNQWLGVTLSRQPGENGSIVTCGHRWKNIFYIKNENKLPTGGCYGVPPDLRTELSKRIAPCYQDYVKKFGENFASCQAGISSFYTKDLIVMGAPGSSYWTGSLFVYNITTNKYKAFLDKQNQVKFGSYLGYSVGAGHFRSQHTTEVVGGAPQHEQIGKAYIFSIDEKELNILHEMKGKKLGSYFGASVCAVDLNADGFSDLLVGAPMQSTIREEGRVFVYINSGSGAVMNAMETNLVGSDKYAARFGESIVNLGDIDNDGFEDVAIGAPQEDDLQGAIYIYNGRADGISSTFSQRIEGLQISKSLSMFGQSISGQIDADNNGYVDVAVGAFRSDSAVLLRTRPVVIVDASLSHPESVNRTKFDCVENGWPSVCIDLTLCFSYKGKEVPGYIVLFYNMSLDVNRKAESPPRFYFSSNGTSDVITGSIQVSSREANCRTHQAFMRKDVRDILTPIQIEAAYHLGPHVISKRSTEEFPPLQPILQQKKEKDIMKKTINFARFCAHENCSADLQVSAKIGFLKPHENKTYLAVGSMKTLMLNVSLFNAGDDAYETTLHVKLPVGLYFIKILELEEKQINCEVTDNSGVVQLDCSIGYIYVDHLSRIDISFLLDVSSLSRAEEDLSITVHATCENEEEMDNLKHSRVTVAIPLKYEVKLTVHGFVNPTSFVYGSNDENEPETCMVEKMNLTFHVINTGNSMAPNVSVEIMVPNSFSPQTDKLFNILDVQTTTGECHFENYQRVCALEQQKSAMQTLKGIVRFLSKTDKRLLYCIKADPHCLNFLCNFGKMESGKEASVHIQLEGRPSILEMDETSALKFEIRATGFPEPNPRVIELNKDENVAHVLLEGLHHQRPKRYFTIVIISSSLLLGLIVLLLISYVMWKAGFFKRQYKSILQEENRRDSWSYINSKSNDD
T1 sequence (P05556 21-798): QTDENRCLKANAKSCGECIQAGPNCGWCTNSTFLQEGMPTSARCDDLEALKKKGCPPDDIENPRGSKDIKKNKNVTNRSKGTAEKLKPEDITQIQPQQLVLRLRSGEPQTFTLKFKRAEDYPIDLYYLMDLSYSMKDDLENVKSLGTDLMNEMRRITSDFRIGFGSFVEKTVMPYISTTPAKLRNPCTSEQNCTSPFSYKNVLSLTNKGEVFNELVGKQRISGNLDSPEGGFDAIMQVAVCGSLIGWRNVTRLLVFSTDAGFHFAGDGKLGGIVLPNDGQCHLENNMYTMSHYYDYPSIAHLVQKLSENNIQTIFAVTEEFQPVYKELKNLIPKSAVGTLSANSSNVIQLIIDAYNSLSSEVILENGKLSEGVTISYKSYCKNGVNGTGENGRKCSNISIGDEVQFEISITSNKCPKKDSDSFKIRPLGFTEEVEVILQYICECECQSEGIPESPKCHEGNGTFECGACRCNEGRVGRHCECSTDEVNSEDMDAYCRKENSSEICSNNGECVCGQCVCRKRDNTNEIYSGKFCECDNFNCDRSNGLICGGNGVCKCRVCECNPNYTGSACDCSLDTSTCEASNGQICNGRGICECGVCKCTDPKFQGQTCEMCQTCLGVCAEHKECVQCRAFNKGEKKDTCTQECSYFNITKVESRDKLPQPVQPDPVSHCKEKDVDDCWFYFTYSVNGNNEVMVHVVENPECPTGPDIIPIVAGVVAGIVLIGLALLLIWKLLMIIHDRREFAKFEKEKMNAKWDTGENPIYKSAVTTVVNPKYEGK

Row | SMILES | IC50
1 | CNC(=O)Nc1ccc(CC(=O)NC(CC(C)C)C(=O)NC(CC(=O)O)c2ccc3c(c2)OCO3)cc1 (stereo not drawn) [compound 1064] | 0.05 to 10 µM
2 | CC(C)CC(NC(=O)C1(c2ccccc2)CC1)C(=O)NC(CC(=O)O)c1ccccc1 (stereo not drawn) [compound 1017] | > 10 µM
3 | CC(C)CC(NC(=O)Cc1ccc(O)c(O)c1)C(=O)NC(CC(=O)O)c1ccccc1 (stereo not drawn) [compound 1098] | > 10 µM
4 | CC(C)CC(NC(=O)Cc1ccc(NS(=O)(=O)c2ccccc2)cc1)C(=O)NC(CC(=O)O)c1ccc2c(c1)OCO2 (stereo not drawn) [compound 1074] | 0.05 to 10 µM
5 | COc1ccc(C(CC(=O)O)NC(=O)C(CCCCNC(=O)OCc2ccccc2)NC(=O)Cc2ccc(NC(=O)Nc3ccccc3C)cc2)cc1OC (stereo not drawn) [compound 1217] | < 0.05 µM
6 | NCC(NC(=O)Cc1ccc(NC(=O)Nc2ccccc2)cc1)C(=O)NC(CC(=O)O)c1ccccc1 (stereo not drawn) [compound 1138] | 0.05 to 10 µM
7 | COc1ccc(CC(=O)NC(CC(C)C)C(=O)NC(CC(=O)O)c2ccccc2)cc1 (stereo not drawn) [compound 1092] | > 10 µM
8 | CC(C)CC(NC(=O)Cc1ccc(NC(=O)OCc2ccccc2)cc1)C(=O)NC(CC(=O)O)c1ccc2c(c1)OCO2 (stereo not drawn) [compound 1073] | 0.05 to 10 µM
9 | CC(C)CC(NC(=O)Cc1ccccc1)C(=O)NC(CC(=O)O)Cc1ccccc1 (stereo not drawn) [compound 1157] | > 10 µM
